Measured values reported in US8748626B2, “Oxazole and thiazole compounds as KSP inhibitors” (Novartis AG, priority 2010, dated 2014).
pIC50: −log10 of the molar value.

Assays:
tumor cell lines = experiment: Inhibition of cellular proliferation in tumor cell lines (CellTiter-Glo); assay type: cell-based; conditions: 50% growth inhibition at 72 hours of continuous compound exposure; cell line not specified; read-out: Biological Activity GI50
Protocol: Cells are plated in 96-well plates at densities of about 500 cells per well of a 96-well plate and are allowed to grow for 24 hours. The cells are then treated with various concentrations of compounds for 72 hours. Then, 100 μl of CellTiter-Glo® solution are added. The CellTiter-Glo® assay measures the amount of ATP present in the well after lysing the cells; the ATP released is used in an enzymatic reaction including the enzyme Luciferease and its substrate Luciferin. The amount of light emitted is proportional to the amount of ATP, which in turn is proportional to the number of live cells in the well. (see Promega product catalog #G7573, CellTiter-Glo® Luminescent Cell Viability Assay). The cells are then incubated in the dark for 30 minutes. The amount of luminescence is determined for each well using a Wallac Trilux plate reader, which correlates with the number of cells per well. The number of viable cells in the wells that receive only DMSO (0.5%) serve as an indication of 0°/a inhibition, while wells without cells serve as 100% inhibition of cell growth. The compound concentration that results in a 50% growth inhibition (GI50) is determined graphically from sigmoidal dose-response curves of log-transformed dose values versus cell counts (percent of control) at 72 hours of continuous compound exposure.
The cell lines used are listed below.
The cell proliferation assay is performed as described above. • Cancer Cell Lines • Colo 205—colon carcinoma • RPMI 1640+10% FBS+1% L-glutamine+1% P/S+1% NaPyr.+Hepes+4.5 g/L Glucose+1% NaBicarb. • MDA 435—breast cancer—high met • EMEM+10% FBS+1% P/S+1% L-Glutamine+1% NEAA+1% NaPyr+1% vitamins • HCT-15 and HCT116—colon carcinoma • RPMI 1640+10% FBS+1% L-glutamine+1% P/S • Drug Resistant Cell Lines • KB3.1—[…] epidermal carcinoma; parental cell line • Iscove's+10% FBS+1% L-glutamine+1% P/S • KBV1—p-glycoprotein associated multi-drug resistant cell line • RPMI 1640+10% FBS+1% L-glutamine+1% P/S+0.2 ug/mL Vinblastine • KB85—p-glycoprotein associated multi-drug resistant cell line • DMEM+10% FBS+1% L-glutamine+1% P/S+10 ng/mL Colchicine

[1] = biological target: motor domain of human KSP (Eg 5, KNSL1) (Homo sapiens (Human), UniProt P52732); experiment: Assay for determining KSP activity (microtubule-stimulated ATPase, Biomol Green); assay type: biochemical; conditions: KSP motor domain 45 nM, microtubules 35 μg/mL, ATP, 1 hour RT, absorbance 630 nm; read-out: Biological Activity IC50
Text: This example provides a representative in vitro assay for determining KSP activity in vitro. Purified microtubules obtained from bovine brain were purchased from Cytoskeleton Inc. (Denver, Colo., USA). The motor domain of human KSP (Eg 5, KNSL1) was cloned, expressed, and purified to greater than 95% homogeneity. Biomol Green was purchased from Affinity Research Products Ltd. (Matford Court, Exeter, Devon, United Kingdom). Microtubules and KSP motor protein (i.e., the KSP motor domain) were diluted in assay buffer (20 mM Tris-HCl (pH 7.5), 1 mM MgCl2, 10 mM DTT and 0.25 mg/mL BSA) to a final concentration of 35 μg/mL microtubules and 45 nM KSP. The microtubule/KSP mixture was then pre-incubated at 37° C. for 10 min to promote the binding of KSP to microtubules.
To each well of the testing plate (384-well plate) containing 1.25 μL of inhibitor or test compound in DMSO (or DMSO only in the case of controls) were added 25 μL of ATP solution (ATP diluted to a concentration of 300 μM in assay buffer) and 25 μL of the above-described microtubule/KSP solution. The plates were incubated at RT for 1 hour. Following incubation, 65 μL of Biomol Green (a malachite green-based dye that detects the release of inorganic phosphate) was added to each well. The plates were incubated for an additional 5-10 minutes then the absorbance at 630 nm was determined using a Victor II plate reader. The amount of absorbance at 630 nm corresponded to the amount of KSP activity in the samples. The IC50 of each inhibitor or test compound was then determined based on the decrease in absorbance at 630 nm at each concentration, via nonlinear regression using either XLFit for Excel or Prism data analysis software by GraphPad Software Inc.

Chain of motor domain of human KSP (Eg 5, KNSL1) (P52732 18-359): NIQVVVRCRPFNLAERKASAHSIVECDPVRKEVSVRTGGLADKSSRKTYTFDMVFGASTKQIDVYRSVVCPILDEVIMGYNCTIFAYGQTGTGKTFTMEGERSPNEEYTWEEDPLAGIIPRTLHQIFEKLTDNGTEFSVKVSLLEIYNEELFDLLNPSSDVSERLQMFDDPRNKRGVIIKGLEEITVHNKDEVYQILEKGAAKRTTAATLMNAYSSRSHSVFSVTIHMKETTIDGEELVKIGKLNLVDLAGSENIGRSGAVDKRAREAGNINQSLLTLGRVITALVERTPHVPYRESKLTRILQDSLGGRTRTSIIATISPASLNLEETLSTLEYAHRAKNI

SMILES | GI50 (tumor cell lines) | pIC50 [1]
C[C@H](O)C(=O)N(C[C@@H]1CNC[C@@H]1F)[C@@H](c1nc(-c2cc(F)ccc2F)sc1Cc1ccccc1)C(C)(C)C [Example 1, (S)-N-((R)-1-(5-benzyl-2-(2,5-difluorophenyl)thiazol-4-yl)-2,2-dimethylpropyl)-N-(((3S,4R)-4-fluoropyrrolidin-3-yl)methyl)-2-hydroxypropanamide] | 0.18 nM | 9.08
CC(C)(C)[C@H](c1nc(-c2cc(F)ccc2F)sc1Cc1ccccc1)N(C[C@@H]1CNC[C@@H]1F)C(=O)[C@@H]1CCCO1 [Example 2, (S)-N-((R)-1-(5-benzyl-2-(2,5-difluorophenyl)thiazol-4-yl)-2,2-dimethylpropyl)-N-(((3S,4R)-4-fluoropyrrolidin-3-yl)methyl)tetrahydrofuran-2-carboxamide] | 1.4 nM | 8.00
C[C@H](O)C(=O)N(CC[C@H](N)CF)[C@@H](c1nc(-c2cc(F)ccc2F)sc1Cc1ccccc1)C(C)(C)C [Example 3, (S)-N-((S)-3-amino-4-fluorobutyl)-N-((R)-1-(5-benzyl-2-(2,5-difluorophenyl)thiazol-4-yl)-2,2-dimethylpropyl)-2-hydroxypropanamide] | 2.2 nM | 8.59
C[C@H](O)C(=O)N(C[C@@H]1CNC[C@@H]1F)[C@@H](c1nc(-c2cc(F)ccc2F)oc1Cc1ccccc1)C(C)(C)C [Example 4, (S)-N-((R)-1-(5-benzyl-2-(2,5-difluorophenyl)oxazol-4-yl)-2,2-dimethylpropyl)-N-(((3S,4R)-4-fluoropyrrolidin-3-yl)methyl)-2-hydroxypropanamide] | 3.5 nM | 8.14
C[C@H](O)C(=O)N(CC[C@H](N)CF)[C@@H](c1nc(-c2cc(F)ccc2F)oc1Cc1ccccc1)C(C)(C)C [Example 5, (S)-N-((S)-3-amino-4-fluorobutyl)-N-((R)-1-(5-benzyl-2-(2,5-difluorophenyl)oxazol-4-yl)-2,2-dimethylpropyl)-2-hydroxypropanamide] | 4.82 nM | 8.60
C[C@H](O)C(=O)N(C[C@@H]1CNC[C@@H]1F)[C@H](c1nc(-c2cc(F)ccc2F)oc1Cc1ccccc1)C(C)(C)C [Example 6, (S)-N-((S)-1-(5-benzyl-2-(2,5-difluorophenyl)oxazol-4-yl)-2,2-dimethylpropyl)-N-(((3S,4R)-4-fluoropyrrolidin-3-yl)methyl)-2-hydroxypropanamide] | – | 6.00
C[C@H](O)C(=O)N(CC[C@H](N)CF)[C@H](c1nc(-c2cc(F)ccc2F)oc1Cc1ccccc1)C(C)(C)C [Example 7, (S)-N-((S)-3-amino-4-fluorobutyl)-N-((S)-1-(5-benzyl-2-(2,5-difluorophenyl)oxazol-4-yl)-2,2-dimethylpropyl)-2-hydroxypropanamide] | – | 6.20
C[C@H](O)C(=O)N(CC[C@H](N)CF)[C@H](c1nc(-c2cc(F)ccc2F)sc1Cc1ccccc1)C(C)(C)C [Example 8, (S)-N-((S)-3-amino-4-fluorobutyl)-N-((S)-1-(5-benzyl-2-(2,5-difluorophenyl)thiazol-4-yl)-2,2-dimethylpropyl)-2-hydroxypropanamide] | 944 nM | –
